Laboratory results published in paper PMC11374660, “The novel family of Warbicin® compounds inhibits glucose uptake both in yeast and human cells and restrains cancer cell proliferation” (Frontiers in Oncology, 2024).
pIC50, pKi: −log10 of the molar value. Where two headings read alike, the source gives them in different places.

What was measured:
[1] = tested on: untransformed MCF10A cell line; assay: Growth and apoptosis of untransformed MCF10A cells (IncuCyte); assay type: cell-based, human; conditions: 1 mM glucose, 25 µM
human GLUT1^V69M = target: T1, human GLUT1^V69M (Homo sapiens, UniProt P11166, V69M); assay: Glucose uptake by GLUT1^V69M expressed in yeast RE700A hxt^0 gal2Δ; assay type: cell-based; conditions: 25 µM, hxt^0 gal2Δ strain
T1 construct: expressed in transfected cells; host or cells: S. cerevisiae RE700A hxt0 gal2Δ transformed with pFL38Kan-GLUT1^V69M (TEF1 promoter, low-copy)
T1 sequence (P11166 1-492 V69M): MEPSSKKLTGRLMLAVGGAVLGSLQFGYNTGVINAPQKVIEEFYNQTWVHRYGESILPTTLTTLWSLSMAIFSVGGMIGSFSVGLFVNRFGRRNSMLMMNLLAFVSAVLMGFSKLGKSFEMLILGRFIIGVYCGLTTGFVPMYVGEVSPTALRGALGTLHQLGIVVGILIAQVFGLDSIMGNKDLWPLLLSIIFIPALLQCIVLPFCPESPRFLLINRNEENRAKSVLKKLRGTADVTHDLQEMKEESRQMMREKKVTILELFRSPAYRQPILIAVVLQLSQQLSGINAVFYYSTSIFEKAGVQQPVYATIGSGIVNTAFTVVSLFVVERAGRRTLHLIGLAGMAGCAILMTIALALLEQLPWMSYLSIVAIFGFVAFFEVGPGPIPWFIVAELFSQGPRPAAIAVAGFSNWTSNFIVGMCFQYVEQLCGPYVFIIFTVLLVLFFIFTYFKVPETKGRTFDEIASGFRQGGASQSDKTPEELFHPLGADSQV
Protocol: Cells of S. cerevisiae were either grown in minimal or rich medium. For minimal medium, cells were grown in Complete Synthetic medium (MP biomedicals) containing 0.5% (w/v) ammonium sulphate (Sigma-Aldrich), 0.17% (w/v) yeast nitrogen base without amino acids and without ammonium sulphate, supplemented with 100 mg/L adenine. In the case of auxotrophic selection, the appropriate composition of essential amino acids (MP Biomedicals) was chosen. For liquid medium, pH was adjusted to 5.5 and for solid medium (2% agar) to 6.5 with KOH. For rich medium, cells were grown on YP medium (1% w/v yeast extract, 2% w/v bacteriological peptone), supplemented with 100 mg/L adenine. Cells of the EBY.VW4000 hxt^0 strain expressing a single HXT carrier or GLUT isoform were (pre)grown in YP medium with 58 mM maltose (which is taken up by its own dedicated maltose transporter). S. cerevisiae cells were always grown at 30°C. Liquid cultures were shaken at 200 rpm.
Zero-trans uptake of radioactively labeled [U-^14C]glucose, [U-^14C]fructose or [U-^14C]galactose by S. cerevisiae cells was determined in accordance with previous studies ([45], [75]). Cells were grown on different carbon sources depending on the experiment. […] The loaded filter was transferred to a scintillation vial containing 3 mL liquid scintillation cocktail (Ultima-Flo M, Perkin Elmer) and counted using the Hidex 300 SL. […]

hexokinase = assay: Hexokinase activity in extracts of wild type yeast cells; assay type: biochemical, S. cerevisiae; conditions: 50 µM; variable glucose / 5 mM ATP and variable ATP / 5 mM glucose
Protocol: In vitro hexokinase activity of yeast cells was determined as described previously ([44], [76]). As such, the yeast cells were first grown to exponential phase on Complete Synthetic medium supplemented with 110 mM galactose. The cells were harvested and washed with ice-cold 25 mM MES buffer pH 6. Subsequently, cells were resuspended in lysis buffer (50 mM HEPES pH 7, 150 mM NaCl, 2.5 mM MgCl2, 5% glycerol and 1% Triton X-100) containing protease inhibitor after which the yeast cells were mechanically lysed. After protein level determination, total protein concentration was diluted to 0.1 mg/mL in reaction buffer (50 mM HEPES pH 7, 150 mM NaCl, 2.5 mM MgCl2, 5% glycerol). For measuring activity, reaction buffer was supplemented with 1.07 mM NADP^+ and 10 U/mL Glu6P dehydrogenase (Sigma-Aldrich G7877). After temperature equilibration of the plate at 30°C, the reaction was started by adding both ATP and glucose to the reaction buffer. OD340 was measured using the Synergy H1 Hybrid reader and hexokinase activity was determined based on the linear increase of absorbance in the first 10-20 s.

[2] = tested on: glucose uptake by wild type yeast cells; assay: Zero-trans uptake of radioactive glucose in wild type yeast cells; assay type: cell-based, S. cerevisiae; conditions: for pIC50: radioactive glucose, 10 s, read-out: IC50 for inhibition of 2.5 mM glucose uptake
Protocol: Zero-trans uptake of radioactively labeled [U-^14C]glucose, [U-^14C]fructose or [U-^14C]galactose by S. cerevisiae cells was determined in accordance with previous studies ([45], [75]). Cells were grown on different carbon sources depending on the experiment. For measuring glucose uptake activity in the tps1Δ and tps1Δ hxtΔ strains, cells were grown on YP medium containing 325 mM glycerol (measurement of 10 s). Typically, for compound characterization and kinetic studies in wild type and tps1Δ strains, cells were (pre)grown on Complete Synthetic medium supplemented with 110 mM galactose (measurement of 10 s). In the experiments on the influence of hexokinase activity on the sugar uptake rate, the measurement duration was shortened to 5 s and cells were always grown on YP medium containing 325 mM glycerol and 430 mM ethanol. After harvesting, cells were washed twice with ice-cold 25 mM MES-buffer pH 6, and resuspended in their respective medium without sugar to a final concentration of 45 mg (wet weight)/mL. The amount of added tracer was estimated to give a response close to at least 1000 counts per min in order to adequately counter background noise. Cells were first preincubated for 10 min at 30°C with the compound to acclimate the cells to the temperature and to allow adequate interaction with the compound prior to uptake. Next, hexose sugar was mixed with the cell suspension, which was then incubated at 30°C for 5 or 10 s, depending on the experiment, after which the cells were rapidly filtered over a glass microfiber filter (Whatman GF/C) and washed three times with ice-cold dH2O. The loaded filter was transferred to a scintillation vial containing 3 mL liquid scintillation cocktail (Ultima-Flo M, Perkin Elmer) and counted using the Hidex 300 SL. Three blank measurements per strain were typically included to account for background signal, for which the cells were first quenched before adding the radioactive label.

Compound	induction of apoptosis [1]	inhibition of 2.5 mM glucose uptake by GLUT1^V69M (human GLUT1^V69M)	effect on in vitro hexokinase activity (hexokinase)	type of inhibition of glucose uptake (Lineweaver-Burk) [2]	pIC50 ([2]; Saccharomyces cerevisiae)	pIC50 [2]	pKi ([2]; read-out: Ki (Dixon plot) for glucose uptake)
Cc1nc(SCC(=O)c2ccc3c(c2)NC(=O)CO3)c2c(-c3cccs3)csc2n1 [WBC-11C]	induces apoptosis	–	–	–	–	–	–
Cc1nc(Sc2nnc3n2CCCCC3)c2c(-c3cccs3)csc2n1 [WBC-A]	–	inhibited glucose uptake both by Hxt7 and GLUT1^V69M	No significant effect	mixed type of inhibition	4.77	4.72	5.04
